What was measured:
Assay type in all cases: cell-based
Set-up in all cases: expressed in transfected cells; host or cells: HEK293 cells transfected with VIPR2 in pCDNA3.1 (as described)
VIPR2 [1] = biological target: T1, VIPR2 (Homo sapiens, UniProt P41587); experiment: Inhibition of VIP-induced cAMP elevation (% Activity cAMP); details: Batch 1
T1 sequence (P41587 24-438): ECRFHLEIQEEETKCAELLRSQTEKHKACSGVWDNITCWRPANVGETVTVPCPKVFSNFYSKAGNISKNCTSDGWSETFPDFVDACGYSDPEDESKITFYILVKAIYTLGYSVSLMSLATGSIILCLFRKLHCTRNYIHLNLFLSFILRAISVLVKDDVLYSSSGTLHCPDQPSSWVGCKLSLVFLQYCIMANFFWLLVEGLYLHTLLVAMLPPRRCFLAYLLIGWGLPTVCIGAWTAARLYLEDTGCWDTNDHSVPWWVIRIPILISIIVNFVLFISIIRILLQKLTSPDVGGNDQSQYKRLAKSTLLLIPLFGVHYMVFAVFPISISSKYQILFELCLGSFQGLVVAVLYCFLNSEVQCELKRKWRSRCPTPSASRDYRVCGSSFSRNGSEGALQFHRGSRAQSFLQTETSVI
Text: (§1) In a further non-limiting embodiment of the invention, the ability of a compound to inhibit VIPR2 and thereby […] a VIP-induced increase in cAMP may be measured using a Homogeneous Time-Resolved Fluorescence (“HTRF® assay; Cisbio Bioassays) as used in Chu et al., 2010, Molecular Pharmacol. 7795-101. In a method as used in Chu et al., 2010, Molecular Pharmacol. 7795-101, HEK293 cells may be transfected with nucleic acid encoding VIPR2, for example human VIPR2 (“hVIPR2”), for example comprised in a vector such as pCDNA3.1 vector. Successful transformants may then be selected, for example using 800 μg/ml G418. Clonal stable cell lines may then be generated by limited dilution to single cells and then may be clonally expanded and tested for VIP -dependent cAMP response. For the cAMP assay, about 3000-15,000 cells (in about 4-25 μl) may be placed in a well of an assay plate. The next day, inhibitor or test inhibitor and VIP may be added in a volume about 1-2 percent of the initial volume. Assay plates may then be returned to a cell incubator for 30 min before addition of a one-half volume of cAMP conjugate and, relative to the amount of cAMP conjugate, an equal volume of anti-cAMP conjugate (Cisbio). After at least 1 h of room-temperature incubation, HTRF signal may be read, for example using Viewlux or EnVision (PerkinElmer Life and Analytical Sciences, Waltham, Mass.). The ratio of […] at 665 nm and 620 nm times 10,000 may be calculated and plotted.
(§2) A series of compounds were prepared using a synthetic method analogous to that set forth in Scheme 1, above, and then tested for their ability to inhibit VIP-induced cAMP elevation and β-arrestin recruitment.
(§3) A series of compounds were prepared using a synthetic method analogous to that set forth in Scheme 1, above, and then tested for their ability to inhibit VIP-induced cAMP elevation and β-arrestin recruitment, as described herein (Discoverx Corporation, Fremont, Calif., US). Compound activities were also tested in a BRET-based assay, as described herein. The results are shown below in Tables 1-4, above.

VIPR2 [2] = biological target: T1, VIPR2; experiment: Inhibition of VIP-induced β-arrestin recruitment (% Activity Arrestin); details: Batch 1
Text: (§4) In a further non-limiting embodiment of the invention, the ability of a compound to inhibit VIPR2 GPCR activity may be tested, for example, using the PathHunter® eXpress β-Arrestin GPCR system (Discoverx Corporation, Fremont, Calif., US), as used by Chu et al., 2010, Molecular Pharmacol. 7795-101. In this assay, β-Arrestin is fused to the “Enzyme Acceptor” (“EA”), an N-terminal deletion mutant of β-gal, and the GPCR of interest is fused to a smaller (42 amino acids), weakly complementing portion of the β-gal enzyme (termed “ProLink™”). In cells that stably express these fusion proteins, the interaction of β-Arrestin and the GPCR following ligand stimulation forces the complementation of the two β-gal fragments resulting in the formation of a functional enzyme that converts substrate to detectable signal. In the absence of an interaction between the GPCR and β-Arrestin, the enzyme activity is low due to the low affinity of the two enzyme fragments. For example, a nucleic acid encoding VIPR2, for example hVIPR2, may be cloned into the ProLink vector (DiscoveRx) for GPCR-ProLink fusion protein production. Parental HEK293 cells that stably express β-arrestin2-β-gal-EA fusion protein (DiscoveRx) may be detached and transiently transfected with the VIPR2-containing vector using Fugene6 transfection reagent in suspension mode. Transfected cells in assay medium may be plated into test plates, for example at 15,000 cells/25 μl/well. After overnight incubation, 500 nl of an inhibitor or test inhibitor may be introduced into the test plate followed by 2 h incubation at 37° C., 5% CO2. Flash detection reagents may be added at 12.5 μl/well. After 5 min to 1 h of room-temperature incubation, the cell plates may be read on CLIPR (PerkinElmer Life and Analytical Sciences)or Acquest (Molecular Devices, Sunnyvale, Calif.) for luminescence signal.
as §2, §3

VIPR2 [3] = biological target: T1, VIPR2; experiment: % Activity: inhibition of VIP-induced cAMP elevation and β-arrestin recruitment (Table 2)
Text: as §1, §4, §3

Compound | inhibition at 0.5 µM (VIPR2 [1]) | inhibition at 1 µM (VIPR2 [1]) | inhibition at 5 µM (VIPR2 [1]) | inhibition at 0.5 µM (VIPR2 [2]) | inhibition at 1 µM (VIPR2 [2]) | inhibition at 5 µM (VIPR2 [2]) | % Activity (VIPR2 [3])
CC(C)CS(=O)(=O)NC[C@@H](O)C[C@@H](Cc1ccccc1)C(=O)N[C@H]1c2ccccc2C[C@H]1O [Compound A11] | 13.3% | 15.6% | 22.2% | 7.1% | 3.2% | 20% | 21.1%
CC(C)C(=O)NC[C@@H](O)C[C@@H](Cc1ccccc1)C(=O)N[C@H]1c2ccccc2C[C@H]1O [Compound A13] | 0.7% | 2.6% | -0.9% | -11.8% | -10.7% | -16.3% | −8.6%
O=C(CCCCBr)NC[C@@H](O)C[C@@H](Cc1ccccc1)C(=O)N[C@H]1c2ccccc2C[C@H]1O [Compound A15] | 11.7% | 12.9% | 9.4% | 1.7% | -28.8% | -10.6% | −0.6%
O=C(NC[C@@H](O)C[C@@H](Cc1ccccc1)C(=O)N[C@H]1c2ccccc2C[C@H]1O)c1cccnc1 [Compound A16] | 15.2% | 13.5% | 16.4% | -6.8% | -5.7% | -6.3% | 5.05%
O=C(NC[C@@H](O)C[C@@H](Cc1ccccc1)C(=O)N[C@H]1c2ccccc2C[C@H]1O)c1ccccn1 [Compound A17] | 14.9% | 17.7% | 20.3% | 6.1% | 32.7% | 5.5% | 12.9%
O=C(NC[C@@H](O)C[C@@H](Cc1ccccc1)C(=O)N[C@H]1c2ccccc2C[C@H]1O)c1ccncc1 [Compound A18] | 14.2% | 19.2% | 21% | -39.7% | 10.9% | -8.8% | 6.1%
O=C(Cc1cccc(Cl)c1)NC[C@@H](O)C[C@@H](Cc1ccccc1)C(=O)N[C@H]1c2ccccc2C[C@H]1O [Compound A19] | 14.4% | 16% | 26.5% | 11.3% | 20.1% | 17.2% | 21.85%
O=C(CCN1C(=O)C=CC1=O)NC[C@@H](O)C[C@@H](Cc1ccccc1)C(=O)N[C@H]1c2ccccc2C[C@H]1O [Compound A21] | 15.5% | 19% | 18.6% | 9.9% | 15.2% | -3.1% | 7.75%
O=C(CCCCl)NC[C@@H](O)C[C@@H](Cc1ccccc1)C(=O)N[C@H]1c2ccccc2C[C@H]1O [Compound A22] | 16.4% | 18.2% | 15.9% | 19.2% | 24.3% | 21.1% | 18.5%

From US20150239831A1, “INHIBITORS OF CENTRAL NERVOUS SYSTEM VASOACTIVE INHIBITORY PEPTIDE RECEPTOR 2” (The Trustees Of Columbia University In The City Of New York, priority 2012, published 2015)
